# Results published in US10604476B2, “Fluorinated amide derivatives and their uses as therapeutic agents” (Trillium Therapeutics Inc., priority 2015, dated 2020).
# Key:
# [1] = test system: formalin-induced paw licking; assay: Mouse formalin test; assay type: in vivo; settings: 41 mg/kg i.p.; most pronounced in second (late) phase
# Method: The formalin test is performed according to the method of Tjolsen et al. Pain, 1992. 51(1). An injection of 0.5% formalin (Sigma) is made into the planter region of the right hind paw of an adult (26-30 g) male CF-1 mouse. Sub-dermal formalin injection elicits a distinct behavioral profile characterized by the mouse licking the affected paw. The behavior is characteristically biphasic in nature. For example, immediately following the injection the mouse licks the paw intensely for approximately 10 min. This is referred to as phase 1 (or, the acute phase) and is followed by a brief latent period (<5 minutes) where there is little behavioral activity. A more prolonged period of about 20-30 min of activity then ensues, which constitutes phase 2 (or, the inflammatory phase). […] The area under the curve (AUG) is calculated for both the acute and inflammatory phases of the licking response for individual animals in both the test and control groups. The percent of control AUG for drug-treated animal groups is determined using the Graph-Pad Prism Version 3.03. The total AUG for each phase of the test group is also calculated and converted to percentage of total AUG of control for each phase. The average and S.E.M. for both the drug treated and control percentages are calculated and tested for significant difference.
# [2] = test system: LTG-resistant amygdala kindled seizures; assay: Lamotrigine (LTG) resistant amygdala kindled seizure rat model; assay type: in vivo; settings: for Duration (sec) ± SD (afterdischarge) / N/F, number of animals active over the number tested / Seizure Score ± SEM: 0.25 hr
# Description: The LTG-resistant amygdala kindled rat model is useful for not only identifying compounds effective against secondarily generalized partial seizures, but also allows for the differentiation of compounds that may be effective in therapy-resistant patients. […] Conversely, valproate can both prevent kindling development and block the expression of fully kindled seizures. The addition of the traditional ASDs, carbamazepine or lamotrigine, during the development of kindled seizures in this model will ultimately impair the effectiveness of lamotrigine against a fully expressed kindled seizure. […] This model may serve as a means to identify compounds which may be effective against therapy-resistant seizures. Anesthetized male Sprague-Dawley rats (250-300 g) are surgically implanted with an electrode into the left amygdala. Animals are then allowed to recover for one week before commencing kindling. The kindling procedure consists of delivering a 200 μAmp stimulus (suprathreshold) daily until all animals in both treatment groups display consistent Stage 4 or 5 seizures. One week after all animals are kindled, the animals receive a challenge dose of LTG (30 mg/kg, i.p.) before being stimulated to confirm the LTG sensitivity of the vehicle-treated control animals, as well as the LTG-resistance of the LTG-treated group. The animals are then allowed a washout of 3 days. On day 3 of the washout, the animals are pre-stimulated to ensure recovery of the fully kindled seizure. On day 4, kindled rats are challenged with a dose of an investigational agent (the dose that produced minimal motor impairment) and then challenged with the kindling stimulus at the predetermined TPE of the investigational drug. […] For this study, the ability of a candidate substance to reduce afterdischarge duration (ADD) and behavioral seizure scores (BSS) is quantitated by varying the dose between 0 and 100% effect. Unlike other acute seizure tests conducted by the ETSP, each kindled rat is allowed at least 3-4 days between tests to “washout” any investigational compound after testing. The average seizure scores±S.E.M. and afterdischarge duration (ADD) are noted, as are the number of animals protected from seizure (defined as a Racine score<3) over the number of animals tested.
# The following procedure is used for surgical implantation of Electrodes. Male Spraque-Dawey rats are anesthetized using 1-3% isoflurane or a Ketamine/Xylazine cocktail. Ketamine is provided as 100 mg/ml solution, and dose 50 mg/kg given i.p. Xylazine is provided as 100 mg/ml solution, and dose 20 mg/kg given i.p. Mix the two solutions together in one syringe and administer i.p as one injection. Rat is monitored through surgery. If the rat is responsive to a tail pinch administer half the dose of Ketamine/xylazine or increase the isoflurane percentage. Administer buprenorphine at 0.02 mg/kg s.c. for pain management. An electric razor is used to shave the surface of the head. The rat is placed on an external heat source on the stereotaxic apparatus such that the height of the incisor bar and the positioning of the ear bars ensure consistency with the reference atlas. The entire scalp is scrubbed with betadine (3×) and wiped with alcohol. Ophthalmic ointment is applied to each eye. All instruments are sterilized via autoclave before beginning surgery. During surgery instruments are placed on a sterile drape. For subsequent surgeries on the same day, instruments can be placed into the hot bead sterilizer between surgeries. Stainless steel screws and electrodes are sterilized in 70% alcohol and place on a sterile drape. A sterile scalpel blade is used to make a midline scalp incision beginning from a point even with the eyes and extending back to and imaginary line connecting the ear. The fascia should be gently split and pulled away by from the scalp. The incision can be held open using retractors/forceps. […]
SMILES,number of paw licks [1],Duration (sec) ± SD (afterdischarge) ([2]; 10 mg/kg i.p.),"N/F, number of animals active over the number tested ([2]; 10 mg/kg i.p.)",Seizure Score ± SEM ([2]; 10 mg/kg i.p.),Duration (sec) ± SD (afterdischarge) ([2]; 25 mg/kg i.p.),"N/F, number of animals active over the number tested ([2]; 25 mg/kg i.p.)",Seizure Score ± SEM ([2]; 25 mg/kg i.p.),Duration (sec) ± SD (afterdischarge) ([2]; 37.5 mg/kg i.p.),"N/F, number of animals active over the number tested ([2]; 37.5 mg/kg i.p.)",Seizure Score ± SEM ([2]; 37.5 mg/kg i.p.),Duration (sec) ± SD (afterdischarge) ([2]; 50 mg/kg i.p.),"N/F, number of animals active over the number tested ([2]; 50 mg/kg i.p.)",Seizure Score ± SEM ([2]; 50 mg/kg i.p.),"EC50, reduction of seizure score (seizure severity) ([2]; i.p., LTG-resistant kindled rats)"
"NC(=O)COc1cc(C(F)(F)F)cc(C(F)(F)F)c1 [I(F), 2-[3,5 bis(trifluoromethyl)-phenoxy]acetamide;]",significant decrease,,,,,,,,,,,,,
"C[C@@H](Oc1cc(Cl)cc(C(F)(F)F)c1)C(N)=O [I(D), (2R)-2-[3-chloro-5-(trifluoromethyl)-phenoxy]propanamide]",,158.5 ± 21.5 s,0/2,5 ± 0.0,71.0 ± 13.61 s,1/5,4.4 ± 0.6,54.2 ± 10.38 s,3/5,3.2 ± 0.75,71.0 ± 13.61 s,6/6,0.83 ± 0.17,32.55 ± 3.58 mg/kg
